Test results taken from patent US6897348B2, “Bandage, methods of producing and using same” (Kimberly Clark Worldwide, Inc, priority 2001, dated 2005).

Legend:
[1] = system: full thickness (excisional) wounds on dorsal skin; experiment: Accelerated wound healing study, full thickness acute wound model (re-epithelialization, epithelial thickness); assay type: in vivo; settings: rat full thickness wound
Method: Following the assessment of hemostatic agents, a study was conducted using the accelerated wound healing study protocol which follows. In the examples of the study, a series of comparative control bandage substrates were evaluated as to the speed at which wounds covered/dressed with such bandages healed. In particular, the rates of re-epithelialization were measured for wounds dressed by such control dressing materials. Additionally, the rates at which wounds heal that have been treated with a series of test compounds in accordance with the present invention, were also measured and compared with the controls.
For the purposes of the examples, the test compounds consisted of chitosan, Niacinamide ascorbate (hereinafter NA) prepared by the method which follows; and chitosan niacinamide ascorbate salt (hereinafter CNA, prepared by the method which follows), 2-ply surgical gauze, and Comfeel® Plus Clear Dressing (Colorplast).
Wounds were treated with test and control articles on the day of wounding (day 0) on 2, 4, 6, 8, 10, 12, and 14 days after the injury. CNA (freeze dried) was cut to the approximate size of the wound and applied over the wound. Chitosan (powder) and NA (powder) were applied over the wound to the depth that covered the underlying tissue. The gauze was cut to extend approximately 0.5 cm beyond the margins of the wound. The Comfeel® Plus dressing was cut to the approximate size of the wound and applied over the wound and also used to cover all test and control articles over the entire dorsal surface of the animal. […]
For the study, twenty four albino rats (12M/12F), each weighing between 250-300 g, were anesthetized (90 mg/Kg Ketamine HCL and 10 mg/Kg Xylazine) and the entire dorsal region of each rat was shaved. […] The epithelial thickness of the three sections of the wound (margin, center and midpoint between these two) was measured by morphometric analysis of the microscopic image using Image-Pro Plus software, Version 3.0 (Media Cybernetics). The average thickness of these sites within the wound was determined for wound healing of the entire site.

[2] = system: human blood; experiment: Lee and White Coagulation Assay in Human Blood; settings: samples in dried form (5 mg/ml), triplicate
Method: For the purposes of this application, and as a preliminary matter, a series of hemostatic agents were evaluated in order to determine a relative comparison of the effectiveness of such compounds on human blood. Each of the compounds were evaluated in the comparison against the standard control (human blood) and the negative control heparin, which is an anti-coagulant. […] Lee and White Coagulation Assay in Human Blood [table]

NC(=O)c1cccnc1.O=C1O[C@H]([C@@H](O)CO)C(O)=C1O [NA, Niacinamide ascorbate] was tested, and the “improvement in re-epithelialization over the gauze control” value ([1]; day 5) was > 50%, the “re-epithelialization compared with the Comfeel control” value ([1]; over 15 days) was “larger growth rates (re-epithelialization rates)” and the “re-epithelialization compared with the gauze control” value ([1]; over 15 days) was “larger numbers for re-epithelialization than the control”.

For Heparin, the “BLOOD CLOTTING TIME (MIN)” value [2] was “NC (NC = No Clot for 60 min)”.
